Drawing on US20030187261A1, “Purine derivatives, process for their preparation and use thereof” (priority 2000, published 2003), this text covers IC50 for one molecule.

Structures are written as SMILES. pIC50: −log10 of the molar value.

The subject of experiment [1] is DNA synthesis. The experiment is described as follows: DNA synthesis in Xenopus egg extracts ([α-32P]dATP incorporation). Format: biochemical. Particulars: [α-32P]dATP incorporation after 3 h; read-out: Inhibition of DNA synthesis IC50. How it is done:
(§1) Metaphase-arrested Xenopus egg extracts were prepared as described previously by Blow “J. Cell Biol.” 1993, 122:993 and stored in liquid nitrogen. Demembranated Xenopus sperm nuclei were prepared as described by Blow & Laskey “Cell” 1986;47:577.
(§2) At concentrations of cdk inhibitors (see Table 6) ranging from 0.1-2 μM, chromosomes remained highly condensed and no nuclear envelope was visible. At 4-6 μM and higher concentrations, interphase nuclei appeared with partially decondensed chromatin and an intact nuclear envelope. […] For the inhibition effect to become detectable, the first 15-min incubation of the interphase extract is probably sufficient.

Experiment [2] relates to MPF activity. The experiment is described as follows: M-phase promoting factor inhibition in metaphase-arrested Xenopus egg extracts. Format: biochemical. Particulars: 1.5 h after addition. How it is done: as §1, §2

`CC[C@H](CCO)Nc1nc(NCc2ccc(O)c(O)c2)c2ncn(C(C)C)c2n1`: the pIC50 in experiment [1] is 5.46; in experiment [2], 5.55.
